Measured values: US5153180A, “Fluorinated nucleosides and process for treating retrovirus infections therewith” (priority 1990, dated 1992)
Like-named read-outs stand apart in the source and are kept apart here.

Tests used:
MT4 = experiment: Intracellular phosphorylation of 3H-FTdR in MT4 cells; type: in vitro ADME; conditions: 1/um 3H-FTdR, within 24 hours, Human MT4
Experimental: (§1) The critical factor for 3'-fluoro-substituted deoxynucleosides to reach a high intracellular efficiency is their ability to be phosphorylated in situ in the infected cells. […] By comparison, the phosphorylation of 50 μm N3 -TdR by HTLV-IIIB -infected H9 cells to the triphosphate during a 24-hour incubation has been reported to reach only 0.9 pmoles/10^6 cells and to be accompanied by an extreme accumulation of the monophosphate of N3 -TdR (460 pmoles/10^6 cells), reflecting a strong inhibition of the dTMP-kinase (Furman et al., Proc. Natl. Acad. Sci. U.S.A. 83 8333 (1986)) and entailing considerable alterations of the deoxynucleoside triphosphate substrate pools (Furman et al., loc. cit.) which affect cellular DNA synthesis.
(§2) Synthesis of nucleotides from 1/um^3 H-FTdR (tritium labeled)
(§3) in cells of various species within 24 hours.

CEM (LAV-II) = experiment: Intracellular phosphorylation of 3H-FTdR in CEM (LAV-II) cells; type: in vitro ADME; conditions: 1/um 3H-FTdR, within 24 hours, Human CEM (LAV-II)
Experimental: as §1, §2, §3

H9 (HTLV-IIIB) = experiment: Intracellular phosphorylation of 3H-FTdR in H9 (HTLV-IIIB) cells; type: in vitro ADME; conditions: 1/um 3H-FTdR, within 24 hours, Human H9 (HTLV-IIIB)
Experimental: as §1, §2, §3

NRK-49F = experiment: Intracellular phosphorylation of 3H-FTdR in NRK-49F cells; type: in vitro ADME; conditions: 1/um 3H-FTdR, within 24 hours, Rat NRK-49F
Experimental: as §1, §2, §3

3T3 = experiment: Intracellular phosphorylation of 3H-FTdR in 3T3 cells; type: in vitro ADME; conditions: 1/um 3H-FTdR, within 24 hours, Mouse 3T3
Experimental: as §1, §2, §3

[1] = biological target: T1, thymidine-phosphorylase from human spleen (Homo sapiens, UniProt P19971); experiment: Phosphorolytic cleavage by thymidine-phosphorylase; type: in vitro ADME
T1 construct: thymidine-phosphorylase from human spleen; from tissue; host or cells: human spleen
T1 sequence (P19971 11-482): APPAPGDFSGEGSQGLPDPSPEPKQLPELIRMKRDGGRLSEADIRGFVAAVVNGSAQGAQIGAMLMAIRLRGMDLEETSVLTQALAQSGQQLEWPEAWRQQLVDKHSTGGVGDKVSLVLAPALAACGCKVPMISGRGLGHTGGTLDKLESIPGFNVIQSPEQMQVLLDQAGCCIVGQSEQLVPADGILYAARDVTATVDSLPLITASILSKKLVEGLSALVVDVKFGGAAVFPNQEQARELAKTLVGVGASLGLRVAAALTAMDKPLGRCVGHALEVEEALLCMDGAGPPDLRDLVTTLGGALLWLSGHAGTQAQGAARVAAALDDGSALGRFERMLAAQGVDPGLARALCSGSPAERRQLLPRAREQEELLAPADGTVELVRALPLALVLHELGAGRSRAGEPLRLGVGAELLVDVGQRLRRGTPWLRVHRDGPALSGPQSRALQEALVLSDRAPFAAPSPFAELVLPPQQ
Excerpt: Therefore FTdR, FddBrUrd and FddFUrd were investigated for their ability to be cleaved by thymidine-phosphorylase from human spleen.

HIV = experiment: Inhibition of the cytopathic effect of HIV on MT-4 cells; type: cell-based; conditions: for EC50: Human immunodeficiency virus 1, MT4, 144 h
Experimental: (§4) Under in vitro conditions immortalized T-lymphocytes can be killed within few days by the cytopathic effect of HIV. […] For this purpose about 20,000 MT-4 cells (Harada et al. Science 229, 563 (1985)) Were infected with HIV (titer: 0.04 m.o.i.) and incubated in the presence or absence of varying concentrations of compounds according to formula I, with 10% fetal calf serum (FCS) in 200 μl RPMI medium. After 6 days of incubation the viable cells were counted that were excluded from trypan blue staining.

in vitro = conditions: human, mt-4 cells
Experimental: as §4

[2] = test system: K-562 acute myeloic leukemia; experiment: Inhibition of proliferation of K-562 cells; type: cell-based; conditions: Homo sapiens
Excerpt: (§5) Originally FTdR was developed as a cytostatic agent (P. Langen et al., Acta biol. med. Germ. 23, 759, 1969; and U.S. Pat. No. 3,775,397) and, therefore, its cytostatic efficacy has been examined in extensive prior studies. […] Ehrlich-mouse-ascites-carcinoma cells (EMAC) represents an exception to that finding, and this is probably connected to its high capability of phosphorylation of FTdR, which is 10 times higher than in human cells. The fast reversibility of the cytostatic effects on EMAC cells was regarded as a special property of this compound (P. Langen et al., Europ. J. Cancer. 14. 349, 1978). The antiproliferative effect of FTdR and FddUrd, and in comparison thereto of N3 -TdR were tested on human cell lines with regard to a possible use in humans. […] When FTdR is compared to N3 -TdR. The effects are very similar, however somewhat lower in each case for N3 -TdR than for FTdR.
(§6) CD50 : inhibitory dose required to reduce the cell number by 50%

[3] = test system: REH acute lymphatic leukemia; experiment: Inhibition of proliferation of REH cells; type: cell-based; conditions: Homo sapiens
Excerpt: as §5, §6

[4] = test system: K-37 immortalized T-cells; experiment: Inhibition of proliferation of K-37 cells; type: cell-based; conditions: Homo sapiens, T-cell
Excerpt: as §5, §6

H9 immortalized T-cells = experiment: Inhibition of proliferation of H9 cells; type: cell-based; conditions: Homo sapiens, T-cell
Excerpt: as §5, §6

[5] = test system: Rauscher murine leukemia virus (RLV); experiment: Antiretroviral activity in mice infected with Rauscher murine leukemia virus; type: in vivo; conditions: for Reverse transcriptas serum / mean spleen weight: RLV +; for Reverse transcriptas serum: 100% = 66000 dpm, treatment discontinued 12 hours before
Experimental: (§7) Therefore we examined the toxicity and antiretroviral activity of FTdR in mice infected with Rauscher murine leukemia virus. Different doses of FTdR were applied to BalB/c Han strain of mice in plain water for 20 days beginning 2-8 hours after RLV infection.

[6] = Toxicity of continuous oral FTdR in mice
Experimental: as §7

[7] = test system: 9 different animal tumors; conditions: NCI program; cited from earlier work
[8] = test system: Ehrlich-mouse-ascites-carcinoma cells (EMAC); conditions: cited from earlier work
[9] = test system: HTLV-IIIB -infected H9 cells; conditions: 50 μm N3 -TdR, 24-hour incubation; cited from earlier work
[10] = AIDS patients treated; cited from earlier work
[11] = oral 1.8 mg/kg/day, given for 24 days
[12] = 6.5 mg/kg/day in drinking water for 20 days, RLV +
[13] = 6.5 mg/kg/day in drinking water for 20 days, RLV -
[14] = 69.0 mg/kg/day in drinking water for 20 days, RLV +
[15] = 69.0 mg/kg/day in drinking water for 20 days, RLV -

Compound: Cc1cn([C@H]2C[C@H](F)[C@@H](CO)O2)c(=O)[nH]c1=O [FTdR, 2',3'-dideoxy-3'-fluorothymidine]
- diphosphate (FdTDP) (MT4): 1.6 pmoles/106 cells
- monophosphate (FdTMP) (MT4): 9.9 pmoles/106 cells
- triphosphate (FdTTP) (MT4): 5.6 pmoles/106 cells
- diphosphate (FdTDP) (CEM (LAV-II)): 0.5 pmoles/106 cells
- monophosphate (FdTMP) (CEM (LAV-II)): 6.1 pmoles/106 cells
- triphosphate (FdTTP) (CEM (LAV-II)): 2.8 pmoles/106 cells
- diphosphate (FdTDP) (H9 (HTLV-IIIB)): 0.3 pmoles/106 cells
- monophosphate (FdTMP) (H9 (HTLV-IIIB)): 3.3 pmoles/106 cells
- triphosphate (FdTTP) (H9 (HTLV-IIIB)): 1.4 pmoles/106 cells
- diphosphate (FdTDP) (NRK-49F): 3.7 pmoles/106 cells
- monophosphate (FdTMP) (NRK-49F): 3.5 pmoles/106 cells
- triphosphate (FdTTP) (NRK-49F): 13.2 pmoles/106 cells
- diphosphate (FdTDP) (3T3): 2.2 pmoles/106 cells
- monophosphate (FdTMP) (3T3): 0.38 pmoles/106 cells
- triphosphate (FdTTP) (3T3): 16.3 pmoles/106 cells
- metabolised at 3 h, 1000 µM [1]: 3 to 8%
- EC50 (HIV; read-out: ED50 (the source's name)): 0.003 µM
- antiviral activity of FTdR against N3 -TdR (HIV; cellular test, ratio of ED50): 5 times
- CC50 at 144 h (in vitro): 1.1 µM
- IC50 ([2]; K562, dose required to reduce the cell number by 50%, K-562, read-out: CD50 (the source's name)): 45 µM
- IC50 ([3]; dose required to reduce the cell number by 50%, read-out: CD50 (the source's name)): 160 µM
- IC50 ([4]; dose required to reduce the cell number by 50%, K-37, read-out: CD50 (the source's name)): 260 µM
- IC50 (H9 immortalized T-cells; dose required to reduce the cell number by 50%, H9, read-out: CD50 (the source's name)): 1000 µM
- suppression of splenomegaly and viremia ([5]; 6.5 mg/kg/day): completely active in suppressing splenomegaly and viremia
- Reverse transcriptas serum ([5]; 6.5 mg/kg/day for 20 days): 0%
- mean spleen weight ([5]; 6.5 mg/kg/day in drinking water for 20 days): 192 mg
- splenomegaly and RLV-associated reverse transcriptase activity in the serum ([5]; 69.0 mg/kg/day): completely suppresses
- Reverse transcriptas serum ([5]; 69.0 mg/kg/day for 20 days): 0%
- mean spleen weight ([5]; 69.0 mg/kg/day in drinking water for 20 days): 86 mg
- development of RLV induced leukemia ([5]; 69.0 mg/kg/day, continuous application for 20 days): able to prevent the development of a leukemia
- suppression of serum reverse transcriptase activity [5, 11]: more than 70%
- suppression of splenomegaly [5, 11]: more than 50%
- signs of anemia and depression of white cell counts ([6]; 6.5 mg/kg/day): failed to produce signs of anemia and depression of white cell counts
- Hemoglobin [6, 12]: 8.1 mmol/L
- changes of body weight [6, 12]: 0%
- Hemoglobin [6, 13]: 8.9 mmol/L
- changes of body weight [6, 13]: +1%
- mean spleen weight [6, 13]: 125 mg
- toxic side effects (hematological parameters) ([6]; 69.0 mg/kg/day): toxic side effects are associated with this concentration range
- Hemoglobin [6, 14]: 5.1 mmol/L
- changes of body weight [6, 14]: -10%
- Hemoglobin [6, 15]: 4.3 mmol/L
- changes of body weight [6, 15]: -12%
- mean spleen weight [6, 15]: 72 mg
- cytostatic effect [7]: only a weak cytostatic effect
- capability of phosphorylation of FTdR in EMAC versus human cells [8]: 10 times

Compound: Cc1cn([C@H]2C[C@H](N=[N+]=[N-])[C@@H](CO)O2)c(=O)[nH]c1=O [N3 -TdR, 3'-azido-2',3'-dideoxythymidine, reference compound]
- EC50 (HIV; read-out: ED50): 0.016 µM
- IC50 ([2]; K562, read-out: CD50): 50 µM
- IC50 ([3]; read-out: CD50): 220 µM
- IC50 ([4]; read-out: CD50): 500 µM
- IC50 (H9 immortalized T-cells; read-out: CD50): 800 µM
- accumulation of the monophosphate [9]: 460 pmoles/10^6 cells
- phosphorylation to the triphosphate [9]: 0.9 pmoles/10^6 cells
- patients requiring blood transfusions (toxic side effects on the bone marrow) [10]: about 50%
